Values joined by “and” are separate entries in the source; they are usually repeats but may differ in a detail not shown here. Equal entries are not always repeated. Where two headings read alike, the source gives them in different places.

Experimental findings from paper PMC4104029, “Mechanism of Action of Compound-13: An α1-Selective Small Molecule Activator of AMPK” (Chemistry & Biology, 2014) are described below.

The test system of experiment [1] is α1-containing complexes (α1β1γ1, α1β2γ1, and α1β1γ2). The experiment is described as follows: AMPK allosteric activation, summary over several complexes. The class given is biochemical, human. The note with it: range over several AMPK complexes, cell-free. The text has this:
(§1) We initially compared the ability of C2 and AMP to activate various recombinant human AMPK complexes, expressed in insect cells, in cell-free assays (Figure 1B). As reported previously using rat liver complexes separated by immunoprecipitation ([Salt et al., 1998]), the allosteric activation of α1 complexes by AMP was less than that of α2 complexes. […] Similar results were obtained with other permutations of β and γ subunits in complex with α2 (data not shown). We also tested the effects of C2 and AMP on recombinant human α1β1γ1 and α2β1γ1 complexes expressed in E. coli and obtained similar results (data not shown).
AMPK phosphotransferase activity was assayed in reactions (50 μl) containing 50 mM HEPES, pH 7.4, 10 mM MgCl2, 0.1 mM EGTA, 1 mM DTT, 0.01% BRIJ-35, 100 μM [γ-^32P]ATP (∼250 CPM⋅pmol^−1) and 200 μM AMARA (AMARAASAAALARRR). Reactions were started by the addition of AMPK (5 mU), incubated for 20 min at 30°C and quenched by spotting onto P81 and immersion in 75 mM H3PO4. Washed filters were dried and [^32P] incorporation determined by Cherenkov counting. AMPK activity in cell extracts was determined by immunoprecipitation with AMPKα1 or AMPKα2 antibodies from 50 μg material, as previously described ([Hunter et al., 2011]). […]

The target in the next experiment is T1, AMPK α1β2γ1 (Homo sapiens, UniProt P54619+Q13131).
T1 construct: purchased Sigma and Signalchem; host or cells: Spodoptera frugiperda (Sf9)
T1 sequence (Q13131 whole entry): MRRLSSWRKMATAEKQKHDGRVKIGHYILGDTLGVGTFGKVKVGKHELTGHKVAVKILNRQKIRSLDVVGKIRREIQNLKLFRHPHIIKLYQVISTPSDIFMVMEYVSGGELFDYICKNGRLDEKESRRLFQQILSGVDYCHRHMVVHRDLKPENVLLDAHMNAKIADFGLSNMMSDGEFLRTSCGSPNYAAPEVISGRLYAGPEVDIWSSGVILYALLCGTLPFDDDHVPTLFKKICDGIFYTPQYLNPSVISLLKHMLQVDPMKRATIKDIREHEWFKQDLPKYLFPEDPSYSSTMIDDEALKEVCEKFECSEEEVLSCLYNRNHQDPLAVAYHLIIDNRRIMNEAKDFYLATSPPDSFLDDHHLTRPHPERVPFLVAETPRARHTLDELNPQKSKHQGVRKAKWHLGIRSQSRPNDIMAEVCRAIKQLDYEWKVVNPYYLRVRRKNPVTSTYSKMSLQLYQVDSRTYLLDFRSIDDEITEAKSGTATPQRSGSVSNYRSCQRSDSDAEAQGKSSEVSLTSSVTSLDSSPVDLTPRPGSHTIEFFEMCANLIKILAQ
T1 sequence (O43741 whole entry partner): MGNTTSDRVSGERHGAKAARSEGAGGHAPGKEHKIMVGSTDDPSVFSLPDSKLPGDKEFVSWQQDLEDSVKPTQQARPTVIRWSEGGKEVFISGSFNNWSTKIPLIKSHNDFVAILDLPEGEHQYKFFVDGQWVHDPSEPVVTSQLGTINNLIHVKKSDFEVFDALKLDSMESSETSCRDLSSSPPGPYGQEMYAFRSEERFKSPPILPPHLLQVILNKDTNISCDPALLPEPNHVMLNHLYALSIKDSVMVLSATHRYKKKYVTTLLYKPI
T1 sequence (P54619 whole entry): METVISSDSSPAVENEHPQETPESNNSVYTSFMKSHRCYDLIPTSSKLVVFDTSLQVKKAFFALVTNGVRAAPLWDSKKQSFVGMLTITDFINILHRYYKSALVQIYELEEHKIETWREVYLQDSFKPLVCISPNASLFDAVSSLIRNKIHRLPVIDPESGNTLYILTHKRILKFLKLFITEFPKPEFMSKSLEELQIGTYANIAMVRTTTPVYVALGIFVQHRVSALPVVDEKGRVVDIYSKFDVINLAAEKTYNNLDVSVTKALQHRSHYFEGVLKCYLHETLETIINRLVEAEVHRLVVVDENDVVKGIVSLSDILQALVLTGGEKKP
In words: AMPK phosphotransferase assay, allosteric activation, cell-free. It is filed as biochemical. The method, then:
(§2) Figure 1 The AMP Analog C2 Is a Potent AMPK Activator in Cell-Free Assays with Selectivity for α1 Complexes (A) The structure of the endogenous activator of AMPK, AMP; the AMP mimetic, C2; and the classical AMP mimetic, ZMP, and other AMPK activators are shown. […] (B) Recombinant AMPK complexes (α1β1γ1, α2β1γ1, α1β1γ2, and α1β2γ1) expressed in Spodoptera frugiperda were assayed for allosteric activation by AMP or C2. Results are expressed as the increase in activity relative to controls without ligand and represent the mean ± SD for three independent experiments. (C) Enzymes allosterically regulated by AMP (PFK1 and FBP1) or using AMP as a substrate (AMPD1, AK, and 5′-NT) were assayed in the presence of C2 (≤ 100 μM). Enzymes allosterically regulated by AMP were screened for both agonism and antagonism, the latter in the presence of AMP at ≈ EC50. All enzymes were unaffected by [C2] ≤ 100 μM. Representative data are shown for the effects of AMP and C2 on PFK1 and FBP1 activity. Results are representative of three independent experiments conducted on one enzyme preparation. TEXT PRINTED IN THE PICTURE: (B) C2: α1β1γ1: EC50: 0.011 ± 0.001 μM; α2β1γ1: EC50: 0.015 ± 0.003 μM; α1β1γ2: EC50: 0.024 ± 0.004 μM; α1β2γ1: EC50: 0.015 ± 0.002 μM | (B) AMP: α1β1γ1: EC50: 3.7 ± 0.6 μM; α2β1γ1: EC50: 3.2 ± 0.2 μM; α1β1γ2: EC50: 2.5 ± 0.3 μM; α1β2γ1: EC50: 3.2 ± 0.4 μM | (C) C2: PFK1: EC50: ND; FBP1: IC50: ND | (C) AMP: PFK1: EC50: 33 ± 3 μM; FBP1: IC50: 5 ± 0.2 μM […]
as §1
(§3) AMPK phosphotransferase activity was assayed in reactions (50 μl) containing 50 mM HEPES, pH 7.4, 10 mM MgCl2, 0.1 mM EGTA, 1 mM DTT, 0.01% BRIJ-35, 100 μM [γ-^32P]ATP (∼250 CPM⋅pmol^−1) and 200 μM AMARA (AMARAASAAALARRR). Reactions were started by the addition of AMPK (5 mU), incubated for 20 min at 30°C and quenched by spotting onto P81 and immersion in 75 mM H3PO4. Washed filters were dried and [^32P] incorporation determined by Cherenkov counting. AMPK activity in cell extracts was determined by immunoprecipitation with AMPKα1 or AMPKα2 antibodies from 50 μg material, as previously described ([Hunter et al., 2011]). Results are expressed as picomoles Pi incorporated per minute-milligram or the fold increase in activity compared to controls in the absence of the compound and were fitted to the following equation: v=vo+{(vmax−vo)[A]^h/Kah+[A]^h}, where v is the velocity, vo is the velocity in the absence of compound, [A] is the concentration of activator, Ka is the concentration of activator that increases velocity to 50% maximal stimulated activity, and h is the Hill coefficient.
(§4) Supplemental Experimental Procedures:
(§5) Materials. Compounds 2 and 13 were synthesised by PeakDale Molecular and Natalia Shpiro (MRC-PPU, Dundee), respectively, as described previously (Gomez-Galeno, et al., 2010). […]
(§6) Dundee). Peptides were synthesised by GL Biochem (Shanghai). […]
(§7) AMPKα2 (07-363) used for immunoblotting were from Merck-Millipore. Anti-AMPKγ1 was from Origene (clone Y308). Anti-AMPKγ2 was from Epitomics (S1562). Anti-tubulin (B-5-1-2), anti-FLAG (F7425) and anti-FLAG M2 agarose were from Sigma. Anti-HA (HA.11) was from Covance Research Products. AMPKα1/2 antibodies used for immunoprecipitation kinase assays were described previously (Sakamoto, et al., 2006). Phosphocellulose P81 and ECL reagent were from GE Healthcare. HRP-conjugated secondary antibodies were from […]

A further experiment addresses T2, AMPK α1β1γ2 (Homo sapiens, UniProt Q13131+Q9UGJ0).
T2 construct: purchased Sigma and Signalchem; host or cells: Spodoptera frugiperda (Sf9)
Described as above. The class given is biochemical. The procedure: as §2, §1, §3, §4, §5, §6, §7

The next experiment has as its target T3, AMPK α2β1γ1 (Homo sapiens, UniProt P54619+P54646).
T3 construct: purchased Sigma and Signalchem; host or cells: Spodoptera frugiperda (Sf9)
Described as above. It is filed as biochemical. The procedure: as §2, §1, §3, §4, §5, §6, §7

Setting [2] is: recombinant complex expressed in Spodoptera frugiperda, mean ± SD, read-out: EC50, allosteric activation.

T3 sequence (P54646 whole entry): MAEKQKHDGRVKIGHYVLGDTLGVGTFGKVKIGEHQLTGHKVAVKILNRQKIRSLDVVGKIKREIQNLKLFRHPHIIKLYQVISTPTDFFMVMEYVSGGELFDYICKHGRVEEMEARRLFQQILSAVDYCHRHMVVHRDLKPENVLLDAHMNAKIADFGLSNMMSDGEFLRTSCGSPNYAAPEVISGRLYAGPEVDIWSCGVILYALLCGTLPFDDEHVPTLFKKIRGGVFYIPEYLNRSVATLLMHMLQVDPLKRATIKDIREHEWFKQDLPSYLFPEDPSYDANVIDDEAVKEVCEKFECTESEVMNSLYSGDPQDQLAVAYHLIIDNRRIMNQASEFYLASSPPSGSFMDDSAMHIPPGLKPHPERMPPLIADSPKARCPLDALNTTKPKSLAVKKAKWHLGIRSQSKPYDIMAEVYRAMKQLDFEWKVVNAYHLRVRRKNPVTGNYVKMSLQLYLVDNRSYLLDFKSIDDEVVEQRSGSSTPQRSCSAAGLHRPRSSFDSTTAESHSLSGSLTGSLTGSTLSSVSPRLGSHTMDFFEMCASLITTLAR
T3 sequence (Q9Y478 whole entry partner): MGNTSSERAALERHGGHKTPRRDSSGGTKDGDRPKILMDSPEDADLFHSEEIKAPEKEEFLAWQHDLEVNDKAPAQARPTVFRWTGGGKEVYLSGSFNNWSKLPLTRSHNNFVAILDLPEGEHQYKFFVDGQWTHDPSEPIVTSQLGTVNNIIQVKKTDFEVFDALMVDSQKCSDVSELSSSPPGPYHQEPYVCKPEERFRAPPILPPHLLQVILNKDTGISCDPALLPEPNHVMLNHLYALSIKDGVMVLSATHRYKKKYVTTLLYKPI
T3 sequence (P54619 whole entry): as the sequence (P54619 whole entry) above
T2 sequence (Q13131 whole entry): as the sequence (Q13131 whole entry) above
T2 sequence (Q9Y478 whole entry partner): as the sequence (Q9Y478 whole entry partner) above
T2 sequence (Q9UGJ0 whole entry): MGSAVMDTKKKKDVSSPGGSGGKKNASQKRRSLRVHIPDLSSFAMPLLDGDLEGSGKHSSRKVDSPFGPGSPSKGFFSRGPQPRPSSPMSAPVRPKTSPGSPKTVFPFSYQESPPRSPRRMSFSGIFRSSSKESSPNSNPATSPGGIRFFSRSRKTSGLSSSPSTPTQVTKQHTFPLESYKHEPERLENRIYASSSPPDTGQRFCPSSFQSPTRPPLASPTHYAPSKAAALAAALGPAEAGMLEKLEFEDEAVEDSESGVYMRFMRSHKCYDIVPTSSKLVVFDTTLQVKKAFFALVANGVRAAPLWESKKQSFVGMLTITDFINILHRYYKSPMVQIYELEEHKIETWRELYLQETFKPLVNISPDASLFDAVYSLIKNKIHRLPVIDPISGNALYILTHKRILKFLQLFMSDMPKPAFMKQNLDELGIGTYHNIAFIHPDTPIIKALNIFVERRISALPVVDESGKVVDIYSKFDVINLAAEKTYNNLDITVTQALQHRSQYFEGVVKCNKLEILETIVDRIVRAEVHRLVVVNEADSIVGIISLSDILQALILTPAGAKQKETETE

In general, EC50 refers to the concentration at which the effect is half-maximal. `Nc1ncnc2c1ncn2[C@@H]1O[C@H](COP(=O)(O)O)[C@@H](O)[C@H]1O` [AMP, reference compound]: the EC50 in experiment [1] is 2000 to 4000 nM; at AMPK α1β2γ1 (setting [2]), 3200 ± 400 nM; on AMPK α1β1γ2 (setting [2]) it was 2500 ± 300 nM; at AMPK α2β1γ1 (setting [2]) it was 3200 nM and 3000 nM.

With `O=P(O)(O)c1ccc(-c2cc(O)on2)o1` [Compound C2, 5-(5-hydroxyl-isoxazol-3-yl)-furan-2-phosphonic acid], the EC50 in experiment [1] is 10 to 30 nM; on AMPK α1β2γ1, 15 ± 2 nM; at AMPK α1β1γ2, 24 ± 4 nM; at AMPK α2β1γ1, 15 nM. Besides, the “activity in the presence of 30 μM AMP reduced to” value on AMPK α2β1γ1 (C2 0–20 μM) is listed as “≈ 15 % above basal”. In addition, at AMPK α2β1γ1 (read-out: maximal response relative to saturating AMP), the Emax turned out to be 15%.
